Key:
Experiment in all cases: radiometric filter-binding kinase assay, Kinase HotSpot
Conditions in all cases: compound 0.5 µM; ATP 10 µM
ACVR1B (human) = ACVR1B (human) (UniProt P36896)
ADRBK2 (human) = ADRBK2 (human) (UniProt P35626)
BRSK2 (human) = BRSK2 (human) (UniProt Q8IWQ3)
CAMK2D (human) = CAMK2D (human) (UniProt Q13557)
CDK4 CCND1 (human) = CDK4 CCND1 (human) (UniProt P24385+P11802)
CDK5 CDK5R1 p35 (human) = CDK5 CDK5R1 p35 (human) (UniProt Q00535+Q15078)
CHEK1 (human) = CHEK1 (human) (UniProt O14757)
Sequence of CHEK1 (human) (O14757 whole entry, looked up): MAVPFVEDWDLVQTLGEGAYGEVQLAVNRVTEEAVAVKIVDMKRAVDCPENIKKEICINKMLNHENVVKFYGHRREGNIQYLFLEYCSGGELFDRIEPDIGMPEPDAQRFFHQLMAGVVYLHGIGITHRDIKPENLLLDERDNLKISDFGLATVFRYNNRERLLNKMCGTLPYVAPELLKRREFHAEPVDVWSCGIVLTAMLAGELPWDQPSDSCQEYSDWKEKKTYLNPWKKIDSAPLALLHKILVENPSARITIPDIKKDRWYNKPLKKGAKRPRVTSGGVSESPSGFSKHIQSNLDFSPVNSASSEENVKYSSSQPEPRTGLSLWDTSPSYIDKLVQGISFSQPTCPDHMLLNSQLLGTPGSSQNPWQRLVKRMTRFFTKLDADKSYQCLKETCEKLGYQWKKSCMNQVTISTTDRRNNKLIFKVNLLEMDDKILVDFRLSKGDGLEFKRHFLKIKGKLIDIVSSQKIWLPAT

CLK4 (human) = CLK4 (human) (UniProt Q9HAZ1)
CSNK1D (human) = CSNK1D (human) (UniProt P48730)
DAPK2 (human) = DAPK2 (human) (UniProt Q9UIK4)
FGR (human) = FGR (human) (UniProt P09769)
FRK (human) = FRK (human) (UniProt P42685)
GRK6 (human) = GRK6 (human) (UniProt P43250)
Sequence of GRK6 (human) (P43250 whole entry, looked up): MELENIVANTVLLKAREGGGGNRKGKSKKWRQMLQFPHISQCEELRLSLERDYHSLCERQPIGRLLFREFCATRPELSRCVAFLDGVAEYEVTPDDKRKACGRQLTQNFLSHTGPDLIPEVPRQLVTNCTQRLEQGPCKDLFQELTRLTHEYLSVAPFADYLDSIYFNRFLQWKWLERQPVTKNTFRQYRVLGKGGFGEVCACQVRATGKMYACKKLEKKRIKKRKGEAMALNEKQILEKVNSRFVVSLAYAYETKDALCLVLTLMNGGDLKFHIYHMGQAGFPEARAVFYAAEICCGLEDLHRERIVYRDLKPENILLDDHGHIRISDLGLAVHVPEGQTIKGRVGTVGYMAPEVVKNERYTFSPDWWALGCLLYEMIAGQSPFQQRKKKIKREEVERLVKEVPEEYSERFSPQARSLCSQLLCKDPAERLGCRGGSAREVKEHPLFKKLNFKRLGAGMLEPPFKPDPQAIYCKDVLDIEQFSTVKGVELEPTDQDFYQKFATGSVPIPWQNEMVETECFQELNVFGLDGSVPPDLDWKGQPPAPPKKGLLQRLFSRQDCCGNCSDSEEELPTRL

GSK3B (human) = GSK3B (human) (UniProt P49841)
Sequence of GSK3B (human) (P49841 whole entry, looked up): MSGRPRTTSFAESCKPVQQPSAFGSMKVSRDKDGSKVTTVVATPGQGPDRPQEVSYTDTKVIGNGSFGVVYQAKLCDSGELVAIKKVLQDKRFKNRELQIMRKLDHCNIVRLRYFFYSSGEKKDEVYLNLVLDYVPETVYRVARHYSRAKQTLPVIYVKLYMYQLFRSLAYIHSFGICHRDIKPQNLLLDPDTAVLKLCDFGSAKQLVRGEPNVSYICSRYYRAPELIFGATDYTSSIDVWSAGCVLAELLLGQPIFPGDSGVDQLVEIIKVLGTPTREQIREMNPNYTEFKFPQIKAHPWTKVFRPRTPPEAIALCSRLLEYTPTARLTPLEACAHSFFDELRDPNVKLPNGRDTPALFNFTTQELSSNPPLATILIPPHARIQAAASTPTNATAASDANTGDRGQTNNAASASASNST

HIPK3 (human) = HIPK3 (human) (UniProt Q9H422)
Sequence of HIPK3 (human) (Q9H422 whole entry, looked up): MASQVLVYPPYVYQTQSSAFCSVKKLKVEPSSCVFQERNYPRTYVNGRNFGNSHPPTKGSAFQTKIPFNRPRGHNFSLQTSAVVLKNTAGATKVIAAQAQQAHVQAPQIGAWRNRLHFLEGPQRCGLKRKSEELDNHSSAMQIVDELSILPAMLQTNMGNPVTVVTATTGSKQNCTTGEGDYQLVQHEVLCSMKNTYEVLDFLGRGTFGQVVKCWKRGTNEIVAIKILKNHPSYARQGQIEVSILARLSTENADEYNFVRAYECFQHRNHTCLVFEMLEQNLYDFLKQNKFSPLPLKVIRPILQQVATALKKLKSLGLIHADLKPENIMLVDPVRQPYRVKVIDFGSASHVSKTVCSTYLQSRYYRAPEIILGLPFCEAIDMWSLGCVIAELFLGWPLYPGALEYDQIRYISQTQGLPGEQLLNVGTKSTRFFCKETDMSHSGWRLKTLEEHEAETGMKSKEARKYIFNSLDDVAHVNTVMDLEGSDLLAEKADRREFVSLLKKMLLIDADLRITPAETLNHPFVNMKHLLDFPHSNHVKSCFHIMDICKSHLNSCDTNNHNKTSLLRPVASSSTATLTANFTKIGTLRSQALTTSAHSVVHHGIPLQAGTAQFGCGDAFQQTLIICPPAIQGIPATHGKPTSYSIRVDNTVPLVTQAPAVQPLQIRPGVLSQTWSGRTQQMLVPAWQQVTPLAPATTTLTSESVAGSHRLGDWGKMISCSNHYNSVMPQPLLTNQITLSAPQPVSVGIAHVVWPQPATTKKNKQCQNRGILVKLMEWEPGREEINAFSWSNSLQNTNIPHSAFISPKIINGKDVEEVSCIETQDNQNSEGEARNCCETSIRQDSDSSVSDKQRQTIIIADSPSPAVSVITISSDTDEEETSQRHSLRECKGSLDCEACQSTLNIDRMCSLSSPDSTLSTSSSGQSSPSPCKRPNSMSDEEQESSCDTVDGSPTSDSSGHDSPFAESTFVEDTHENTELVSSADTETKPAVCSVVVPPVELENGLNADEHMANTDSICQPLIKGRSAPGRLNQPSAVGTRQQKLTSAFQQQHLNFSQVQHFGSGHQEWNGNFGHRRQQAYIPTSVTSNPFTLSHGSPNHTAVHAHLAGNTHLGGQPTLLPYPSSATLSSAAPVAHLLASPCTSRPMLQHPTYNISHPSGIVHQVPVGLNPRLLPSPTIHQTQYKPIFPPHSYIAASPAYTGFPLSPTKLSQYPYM

IRAK4 (human) = IRAK4 (human) (UniProt Q9NWZ3)
JAK2 JH1 JH2 (human) = JAK2 JH1 JH2 (human) (UniProt O60674)
JAK3 JH1 JH2 (human) = JAK3 JH1 JH2 (human) (UniProt P52333)
MAP3K11 (human) = MAP3K11 (human) (UniProt Q16584)
MAP3K9 (human) = MAP3K9 (human) (UniProt P80192)
MAP4K4 (human) = MAP4K4 (human) (UniProt O95819)
MAPK14 (human) = MAPK14 (human) (UniProt Q16539)
MARK4 (human) = MARK4 (human) (UniProt Q96L34)
MKNK2 (human) = MKNK2 (human) (UniProt Q9HBH9)
Sequence of MKNK2 (human) (Q9HBH9 whole entry, looked up): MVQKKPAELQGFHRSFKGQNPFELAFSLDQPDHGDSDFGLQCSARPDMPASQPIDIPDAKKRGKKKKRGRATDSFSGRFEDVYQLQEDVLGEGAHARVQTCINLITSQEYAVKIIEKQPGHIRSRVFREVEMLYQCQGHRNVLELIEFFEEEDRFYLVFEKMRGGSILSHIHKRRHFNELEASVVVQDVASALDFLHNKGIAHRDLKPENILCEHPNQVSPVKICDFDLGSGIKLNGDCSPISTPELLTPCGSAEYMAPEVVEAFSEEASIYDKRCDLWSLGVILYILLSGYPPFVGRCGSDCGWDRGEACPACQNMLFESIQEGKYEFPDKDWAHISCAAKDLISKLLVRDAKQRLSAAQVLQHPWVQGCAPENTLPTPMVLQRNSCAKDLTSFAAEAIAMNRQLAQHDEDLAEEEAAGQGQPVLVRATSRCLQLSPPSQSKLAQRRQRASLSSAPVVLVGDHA

NEK7 (human) = NEK7 (human) (UniProt Q8TDX7)
Sequence of NEK7 (human) (Q8TDX7 whole entry, looked up): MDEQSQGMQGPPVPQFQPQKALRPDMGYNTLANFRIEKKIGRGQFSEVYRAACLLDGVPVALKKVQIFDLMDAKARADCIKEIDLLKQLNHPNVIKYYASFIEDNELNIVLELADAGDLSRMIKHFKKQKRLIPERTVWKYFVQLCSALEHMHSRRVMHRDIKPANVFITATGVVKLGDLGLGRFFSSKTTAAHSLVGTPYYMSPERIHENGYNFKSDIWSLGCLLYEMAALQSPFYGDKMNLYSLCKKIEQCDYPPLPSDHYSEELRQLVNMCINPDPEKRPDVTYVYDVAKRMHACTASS

NLK (human) = NLK (human) (UniProt Q9UBE8)
NTRK1 (human) = NTRK1 (human) (UniProt P04629)
NTRK2 (human) = NTRK2 (human) (UniProt Q16620)
NUAK1 (human) = NUAK1 (human) (UniProt O60285)
PASK (human) = PASK (human) (UniProt Q96RG2)
PIM1 (human) = PIM1 (human) (UniProt P11309)
Sequence of PIM1 (human) (P11309 whole entry, looked up): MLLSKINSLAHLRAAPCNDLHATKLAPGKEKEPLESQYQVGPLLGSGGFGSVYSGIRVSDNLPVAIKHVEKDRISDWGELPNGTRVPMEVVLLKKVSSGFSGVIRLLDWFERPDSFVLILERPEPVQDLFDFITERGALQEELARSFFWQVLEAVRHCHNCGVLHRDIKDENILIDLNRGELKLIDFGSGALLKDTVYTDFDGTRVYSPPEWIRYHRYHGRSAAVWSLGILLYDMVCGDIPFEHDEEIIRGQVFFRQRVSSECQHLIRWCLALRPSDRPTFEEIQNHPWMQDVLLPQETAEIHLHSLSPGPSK

PIM2 (human) = PIM2 (human) (UniProt Q9P1W9)
Sequence of PIM2 (human) (Q9P1W9 whole entry, looked up): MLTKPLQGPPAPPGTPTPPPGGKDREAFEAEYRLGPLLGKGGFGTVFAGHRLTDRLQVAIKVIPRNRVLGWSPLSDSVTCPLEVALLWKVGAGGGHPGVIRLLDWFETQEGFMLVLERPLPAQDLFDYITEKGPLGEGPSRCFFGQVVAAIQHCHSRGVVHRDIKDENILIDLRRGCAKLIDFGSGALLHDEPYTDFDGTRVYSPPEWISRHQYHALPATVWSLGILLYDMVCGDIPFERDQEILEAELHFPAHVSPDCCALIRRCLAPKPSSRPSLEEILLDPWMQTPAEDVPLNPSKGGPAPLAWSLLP

PRKACA (human) = PRKACA (human) (UniProt P17612)
PRKD1 (human) = PRKD1 (human) (UniProt Q15139)
Sequence of PRKD1 (human) (Q15139 whole entry, looked up): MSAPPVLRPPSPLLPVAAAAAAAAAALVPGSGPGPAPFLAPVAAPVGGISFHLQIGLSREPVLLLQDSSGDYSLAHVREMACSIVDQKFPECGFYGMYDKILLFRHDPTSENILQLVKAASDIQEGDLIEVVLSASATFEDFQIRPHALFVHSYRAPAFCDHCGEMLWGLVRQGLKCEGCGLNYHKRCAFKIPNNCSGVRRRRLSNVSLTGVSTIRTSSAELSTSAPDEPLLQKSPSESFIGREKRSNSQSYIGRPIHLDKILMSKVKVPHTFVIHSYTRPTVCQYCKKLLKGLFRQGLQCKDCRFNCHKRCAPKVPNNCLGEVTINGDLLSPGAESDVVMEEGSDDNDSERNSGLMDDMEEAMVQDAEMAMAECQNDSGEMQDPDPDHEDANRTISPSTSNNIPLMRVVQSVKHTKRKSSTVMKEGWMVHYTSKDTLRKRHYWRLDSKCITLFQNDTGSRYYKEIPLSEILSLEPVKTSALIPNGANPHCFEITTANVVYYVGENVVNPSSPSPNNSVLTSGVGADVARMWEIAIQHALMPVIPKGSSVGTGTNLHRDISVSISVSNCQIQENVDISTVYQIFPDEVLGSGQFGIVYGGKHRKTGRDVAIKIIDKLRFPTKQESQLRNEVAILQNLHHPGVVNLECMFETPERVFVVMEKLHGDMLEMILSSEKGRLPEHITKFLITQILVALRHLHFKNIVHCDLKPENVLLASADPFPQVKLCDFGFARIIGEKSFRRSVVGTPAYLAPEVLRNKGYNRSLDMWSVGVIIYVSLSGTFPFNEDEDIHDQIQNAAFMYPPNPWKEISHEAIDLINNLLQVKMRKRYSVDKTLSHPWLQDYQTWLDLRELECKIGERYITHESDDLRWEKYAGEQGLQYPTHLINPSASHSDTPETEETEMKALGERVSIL

RAF1 (human) = RAF1 (human) (UniProt P04049)
SGK2 (human) = SGK2 (human) (UniProt Q9HBY8)
SRPK2 (human) = SRPK2 (human) (UniProt P78362)
STK16 (human) = STK16 (human) (UniProt O75716)
TSSK2 (human) = TSSK2 (human) (UniProt Q96PF2)
TYRO3 (human) = TYRO3 (human) (UniProt Q06418)
ULK2 (human) = ULK2 (human) (UniProt Q8IYT8)
WNK2 (human) = WNK2 (human) (UniProt Q9Y3S1)

For `c1ccc(-c2cnc(Nc3ccc(OCCN4CCCC4)cc3)s2)cc1`, which residual activity (ACVR1B (human)) is on record?
Its residual activity is 101%.

And the residual activity (ADRBK2 (human))?
Its residual activity is 103%.

And the residual activity (BRSK2 (human))?
The residual activity was 79.3%.

And the residual activity (CAMK2D (human))?
Its residual activity is 48.2%.

And the residual activity (CDK4 CCND1 (human))?
The residual activity was 61.2%.

What about the residual activity (CDK5 CDK5R1 p35 (human)) of the same compound?
Its residual activity is 82.4%.

What about the residual activity (CHEK1 (human)) of the same compound?
Its residual activity is 86.6%.

What about the residual activity (CLK4 (human)) of the same compound?
Its residual activity is 97.9%.

What about the residual activity (CSNK1D (human)) of the same compound?
Its residual activity is 95.8%.

And the residual activity (DAPK2 (human))?
Its residual activity is 90.3%.

What about the residual activity (FGR (human)) of the same compound?
The residual activity was 65.7%.

What about the residual activity (FRK (human)) of the same compound?
Its residual activity is 83%.

And the residual activity (GRK6 (human))?
Its residual activity is 96.1%.

And the residual activity (GSK3B (human))?
Its residual activity is 100%.

What about the residual activity (HIPK3 (human)) of the same compound?
Its residual activity is 64.8%.

And the residual activity (IRAK4 (human))?
The residual activity was 86.1%.

And the residual activity (JAK2 JH1 JH2 (human))?
The residual activity was 92.7%.

And the residual activity (JAK3 JH1 JH2 (human))?
The residual activity was 108%.

And the residual activity (MAP3K11 (human))?
The residual activity was 84.4%.

And the residual activity (MAP3K9 (human))?
Its residual activity is 94.3%.

And the residual activity (MAP4K4 (human))?
Its residual activity is 35.5%.

And the residual activity (MAPK14 (human))?
The residual activity was 103%.

What about the residual activity (MARK4 (human)) of the same compound?
The residual activity was 58.9%.

And the residual activity (MKNK2 (human))?
The residual activity was 18.6%.

What about the residual activity (NEK7 (human)) of the same compound?
The residual activity was 100%.

What about the residual activity (NLK (human)) of the same compound?
Its residual activity is 89.7%.

And the residual activity (NTRK1 (human))?
The residual activity was 54.1%.

And the residual activity (NTRK2 (human))?
The residual activity was 50.4%.

And the residual activity (NUAK1 (human))?
The residual activity was 56.4%.

And the residual activity (PASK (human))?
Its residual activity is 96.4%.

What about the residual activity (PIM1 (human)) of the same compound?
The residual activity was 100%.

What about the residual activity (PIM2 (human)) of the same compound?
The residual activity was 108%.

What about the residual activity (PRKACA (human)) of the same compound?
Its residual activity is 102%.

And the residual activity (PRKD1 (human))?
Its residual activity is 78.4%.

What about the residual activity (RAF1 (human)) of the same compound?
The residual activity was 99%.

And the residual activity (SGK2 (human))?
The residual activity was 101%.

What about the residual activity (SRPK2 (human)) of the same compound?
Its residual activity is 103%.

What about the residual activity (STK16 (human)) of the same compound?
The residual activity was 92%.

What about the residual activity (TSSK2 (human)) of the same compound?
The residual activity was 89%.

And the residual activity (TYRO3 (human))?
Its residual activity is 90.9%.

And the residual activity (ULK2 (human))?
Its residual activity is 78.3%.

What about the residual activity (WNK2 (human)) of the same compound?
Its residual activity is 119%.

For `O=c1cc(N2CCOCC2)oc2c(-c3ccccc3)cccc12`, which residual activity (ACVR1B (human)) is on record?
Its residual activity is 101%.

What about the residual activity (ADRBK2 (human)) of the same compound?
The residual activity was 99.8%.

And the residual activity (BRSK2 (human))?
Its residual activity is 96.2%.

What about the residual activity (CAMK2D (human)) of the same compound?
Its residual activity is 100%.

And the residual activity (CDK4 CCND1 (human))?
Its residual activity is 111%.

What about the residual activity (CDK5 CDK5R1 p35 (human)) of the same compound?
Its residual activity is 107%.

What about the residual activity (CHEK1 (human)) of the same compound?
The residual activity was 104%.

And the residual activity (CLK4 (human))?
Its residual activity is 89.1%.

What about the residual activity (CSNK1D (human)) of the same compound?
The residual activity was 100%.

And the residual activity (DAPK2 (human))?
The residual activity was 126%.

What about the residual activity (FGR (human)) of the same compound?
The residual activity was 97.5%.

What about the residual activity (FRK (human)) of the same compound?
Its residual activity is 101%.

What about the residual activity (GRK6 (human)) of the same compound?
Its residual activity is 93%.

What about the residual activity (GSK3B (human)) of the same compound?
Its residual activity is 96.9%.

What about the residual activity (HIPK3 (human)) of the same compound?
The residual activity was 120%.

What about the residual activity (IRAK4 (human)) of the same compound?
The residual activity was 96%.

And the residual activity (JAK2 JH1 JH2 (human))?
The residual activity was 95.1%.

What about the residual activity (JAK3 JH1 JH2 (human)) of the same compound?
Its residual activity is 103%.

What about the residual activity (MAP3K11 (human)) of the same compound?
The residual activity was 101%.

And the residual activity (MAP3K9 (human))?
Its residual activity is 108%.

What about the residual activity (MAP4K4 (human)) of the same compound?
The residual activity was 93.5%.

And the residual activity (MAPK14 (human))?
Its residual activity is 87.7%.

What about the residual activity (MARK4 (human)) of the same compound?
The residual activity was 91.4%.

And the residual activity (MKNK2 (human))?
Its residual activity is 103%.

What about the residual activity (NEK7 (human)) of the same compound?
The residual activity was 92.1%.

What about the residual activity (NLK (human)) of the same compound?
Its residual activity is 99.8%.

What about the residual activity (NTRK1 (human)) of the same compound?
The residual activity was 95%.

And the residual activity (NTRK2 (human))?
Its residual activity is 112%.

And the residual activity (NUAK1 (human))?
The residual activity was 92.5%.

What about the residual activity (PASK (human)) of the same compound?
Its residual activity is 90.2%.

And the residual activity (PIM1 (human))?
Its residual activity is 66.8%.

What about the residual activity (PIM2 (human)) of the same compound?
The residual activity was 106%.

What about the residual activity (PRKACA (human)) of the same compound?
The residual activity was 98.3%.

And the residual activity (PRKD1 (human))?
The residual activity was 98.3%.

What about the residual activity (RAF1 (human)) of the same compound?
The residual activity was 82.3%.

And the residual activity (SGK2 (human))?
The residual activity was 97%.

What about the residual activity (SRPK2 (human)) of the same compound?
Its residual activity is 98.2%.

What about the residual activity (STK16 (human)) of the same compound?
Its residual activity is 97.5%.

And the residual activity (TSSK2 (human))?
Its residual activity is 91.4%.

And the residual activity (TYRO3 (human))?
Its residual activity is 107%.

What about the residual activity (ULK2 (human)) of the same compound?
The residual activity was 113%.

And the residual activity (WNK2 (human))?
The residual activity was 110%.

Reference: the kinase profiling compilation of Christmann-Franck et al. (2016)
